Assay results published in PMC11696576, “Next generation thiazolyl ketone inhibitors of cytosolic phospholipase A2 α for targeted cancer therapy” (Nature Communications, 2025).
Values joined by “and” are separate entries in the source; they are usually repeats but may differ in a detail not shown here. Equal entries are not always repeated. Where two headings read alike, the source gives them in different places.

Tested on: panel of 66 cancer cell lines
Test: cancer cell line screen, proliferation assay (ATPlite, 72 h)
Format: cell-based, human
Settings: for IC50: Homo sapiens; for raw signal, dose-response (Figure S7a): rep1, rep2, listed as AVX235
Source text: Targeting specific molecular vulnerabilities in cancer is considered a key approach to reducing the adverse effects of chemotherapy. However, the events that govern the susceptibility to suppression of the cPLA2α in cancer remain largely unexplored. We therefore took the approach of screening the antiproliferative activity of AVX420 in a panel of 66 cancer cell lines (hereafter referred to as the cancer cell line screen or CCLS) to allow us to investigate molecular and genetic vulnerabilities to the drug.
Screening of compound activities in 66 cancer cell lines was carried out at the Netherlands Translation Research Center. Briefly, proliferation assays were performed 72 h after compound addition using ATPlite 1step reagent (Perkin Elmer). IC50s calculated by non-linear regression analysis were used as a measure of compound activity for investigating associations with genetic factors. A complete description of the laboratory and data analysis methods are available in the Supplementary Information file (Supplemental Methods: Cancer Cell Line Screening).
Cancer cell line screening
Cell proliferation assays
All cell lines were from the American Type Culture Collection (ATCC) Manassas, Virginia (US) and maintained under ATCC-recommended protocols and within 9 pas- […]
DMSO at -80°C until one hour before use. Cells exposed within one hour after thaw-ing of the compound stocks. Final compound concentration range in the assay was 10 […]
cated by supplier. Compounds were dissolved in 100 % DMSO and stored at room temperature. Final concentration of the reference compounds in the assay was 3.16x10-5 M to 3.16x10-9 M. The final DMSO concentration during incubation was […]
Cell lines were plated in Advanced RPMI 1640 (Gibco, ref 12633-012) cell culture medium, containing 1% Glutamax solution (Gibco, ref 35050-038), 0.4% Pen Strep solution (Gibco, ref 15140-122) and bovine serum. The cPLA2α inhibitors were tested in 0.5% bovine serum (HyClone, ref SH30072.03) with the exception of769-P, A-204, BT-549, SR, T98G, which were tested in the presence of 1.0% serum and A-704 and LNCaP FGS, which were tested in the in the presence of 10% serum. Reference com-pounds were all tested in the presence of 10% bovine serum.
Cells were dispensed in a 384-well plate, at a concentration of 200 - 3200 cells per well, depending on the cell line, in 45 μL medium. Plated cells were incubated in a humidified atmosphere of 5% CO2 at 37 °C. After 24 hours, 5 μL of compound dilu-tion was added and plates were further incubated for another 72 hours. After 72 hours, 25 μL of ATPlite 1Step™ (PerkinElmer) solution was added to each well, and subse-quently shaken for 2 minutes. After 10 minutes of incubation in the dark, the lumines-cence was recorded on an Envision multimode reader (PerkinElmer).
Cell growth control. The cellular doubling times of all cell lines are calculated from the t = 0 hours and t = 72 hours growth signals of the untreated cells. If the doubling time is out of specification (0.5 – 2.0 times deviating from historic average) the assay […]
IC50s were calculated by non-linear regression using IDBS XLfit 5. The percentage growth after 72h (%-growth) was calculated as follows: 100% x (luminescence t = 72h / luminescence untreated,t=72h). This was fitted to the 10log compound concentration (conc) by a 4-parameter logistics curve: %-growth = bottom + (top – bottom) / (1+ 10(logIC50 – conc)*hill)), where hill is the Hill-coefficient, and bottom and top the asymptotic mini-mum and maximum cell growth that the compound allows in that assay.
All analysis were performed in the statistical software package R and visualized using GraphPad Prism version 10.0 .0

## CCCCCCCCc1ccc(OCC(=O)c2nc(C(=O)OC)cs2)cc1 [GK470]
SK-N-AS, SKNAS, peripheral_nervous_system, read-out: pIC50 (converted)
  IC50: 19.1 µM
SK-N-AS, read-out: IC50
  IC50: 19 µM
SK-N-FI, read-out: IC50
  IC50: 17.5 µM
SNU-C2B, read-out: IC50
  IC50: 14.7 µM
SR, read-out: IC50
  IC50: 13.8 µM
SUP-T1, SUP-T1, read-out: IC50
  IC50: 12.5 µM
SW48, SW48, large_intestine, read-out: pIC50 (converted)
  IC50: 20 µM
SW48, SW48, read-out: IC50
  IC50: 19.9 µM
SW480, SW480, read-out: IC50
  IC50: 13.5 µM
SW948, SW948, read-out: IC50
  IC50: 17.4 µM
SW-620, SW620, read-out: IC50
  IC50: 18.1 µM
T98G, read-out: IC50
  IC50: 28.4 µM
T-24, T24, read-out: IC50
  IC50: 12.3 µM
TT, read-out: IC50
  IC50: 21.8 µM
U2OS, U-2 OS, read-out: IC50
  IC50: 17.7 µM
U-87 MG, U87MG, central_nervous_system, read-out: pIC50 (converted)
  IC50: 17 µM
U-87 MG, read-out: IC50
  IC50: 17 µM
VA-ES-BJ, read-out: IC50
  IC50: 19.6 µM
Hs578T, breast
  pIC50: 4,862
J82, urinary_tract
  pIC50: 4,801
Jurkat E6.1, Log10 M -4
  raw signal, dose-response (Figure S7a): 1240 and 667
Jurkat E6.1, Log10 M -4.5
  raw signal, dose-response (Figure S7a): 69347 and 62800
Jurkat E6.1, Log10 M -5
  raw signal, dose-response (Figure S7a): 1516720 and 2014840
Jurkat E6.1, Log10 M -5.5
  raw signal, dose-response (Figure S7a): 2624707 and 2368947
Jurkat E6.1, Log10 M -6
  raw signal, dose-response (Figure S7a): 2496507 and 2717280
Jurkat E6.1, Log10 M -6.5
  raw signal, dose-response (Figure S7a): 2786800 and 2504560
Jurkat E6.1, Log10 M -7
  raw signal, dose-response (Figure S7a): 2315800 and 2537613
Jurkat E6.1, Log10 M -7.5
  raw signal, dose-response (Figure S7a): 2302120 and 2459400
Jurkat E6.1, Log10 M -8
  raw signal, dose-response (Figure S7a): 2509133 and 2328987
Jurkat, blood
  pIC50: 4,903
K562, blood
  pIC50: 4,964
KU812, blood
  pIC50: 4,982
KU812, Log10 M -4
  raw signal, dose-response (Figure S7a): 2000 and 2307
KU812, Log10 M -5
  raw signal, dose-response (Figure S7a): 1822573 and 2233120
KU812, Log10 M -5.5
  raw signal, dose-response (Figure S7a): 3176813 and 3177440
KU812, Log10 M -6
  raw signal, dose-response (Figure S7a): 3485480 and 3637827
KU812, Log10 M -6.5
  raw signal, dose-response (Figure S7a): 3729800 and 3806653
KU812, Log10 M -7
  raw signal, dose-response (Figure S7a): 3631000 and 3828800
KU812, Log10 M -7.5
  raw signal, dose-response (Figure S7a): 3591800 and 3773040
KU812, Log10 M -8
  raw signal, dose-response (Figure S7a): 3583000 and 3731880
LoVo, large_intestine
  pIC50: 4,715
MCF7, breast
  pIC50: 4,897
MIAPaCa2, pancreas
  pIC50: 4,962
MOLT-4, Log10 M -4
  raw signal, dose-response (Figure S7a): 6747 and 7320
MOLT-4, Log10 M -4.5
  raw signal, dose-response (Figure S7a): 20107 and 20253
MOLT-4, Log10 M -5
  raw signal, dose-response (Figure S7a): 5205800 and 4645067
MOLT-4, Log10 M -5.5
  raw signal, dose-response (Figure S7a): 6414373 and 7056240
MOLT-4, Log10 M -6
  raw signal, dose-response (Figure S7a): 6351120 and 6709307
MOLT-4, Log10 M -6.5
  raw signal, dose-response (Figure S7a): 7338240 and 7172960
MOLT-4, Log10 M -7
  raw signal, dose-response (Figure S7a): 6855453 and 6993467
MOLT-4, Log10 M -7.5
  raw signal, dose-response (Figure S7a): 7127253 and 7052227
MOLT-4, Log10 M -8
  raw signal, dose-response (Figure S7a): 6961773 and 6888133
MeWo, skin
  pIC50: 4,763
NCIH82, lung
  pIC50: 4,863
NCIH460, lung
  pIC50: 4,648
PA1, ovary
  pIC50: 4,937
RPMI7951, skin
  pIC50: 4,789
RT4, urinary_tract
  pIC50: 4,784
SHP77, lung
  pIC50: 4,925
SKNFI, peripheral_nervous_system
  pIC50: 4,757
SR, Log10 M -4
  raw signal, dose-response (Figure S7a): 14067 and 13787
SR, Log10 M -4.5
  raw signal, dose-response (Figure S7a): 35000 and 26573
SR, Log10 M -5
  raw signal, dose-response (Figure S7a): 2706093 and 3120400
SR, Log10 M -5.5
  raw signal, dose-response (Figure S7a): 3256320 and 3580587
SR, Log10 M -6
  raw signal, dose-response (Figure S7a): 3226453 and 3322280
SR, Log10 M -6.5
  raw signal, dose-response (Figure S7a): 3558600 and 3526027
SR, Log10 M -7
  raw signal, dose-response (Figure S7a): 2883787 and 3035533
SR, Log10 M -7.5
  raw signal, dose-response (Figure S7a): 3423760 and 3325493
SR, Log10 M -8
  raw signal, dose-response (Figure S7a): 3355853 and 3535333
SUP-T1, Log10 M -4
  raw signal, dose-response (Figure S7a): 23760 and 47307
SUP-T1, Log10 M -4.5
  raw signal, dose-response (Figure S7a): 44040 and 66933
SUP-T1, Log10 M -5
  raw signal, dose-response (Figure S7a): 5647093 and 4986840
SUP-T1, Log10 M -5.5
  raw signal, dose-response (Figure S7a): 6851973 and 7008107
SUP-T1, Log10 M -6
  raw signal, dose-response (Figure S7a): 6610693 and 7288227
SUP-T1, Log10 M -6.5
  raw signal, dose-response (Figure S7a): 6531960 and 6798507
SUP-T1, Log10 M -7
  raw signal, dose-response (Figure S7a): 6485200 and 6760880
SUP-T1, Log10 M -7.5
  raw signal, dose-response (Figure S7a): 6096293 and 6838453
SUP-T1, Log10 M -8
  raw signal, dose-response (Figure S7a): 6918733 and 6611987
SUPT1, blood
  pIC50: 4,905
SW480, large_intestine
  pIC50: 4,869
SW620, large_intestine
  pIC50: 4,743
SW948, large_intestine
  pIC50: 4,759
T24, urinary_tract
  pIC50: 4,911
T98G, central_nervous_system
  pIC50: 4,546
TT, thyroid
  pIC50: 4,661
U2OS, bone
  pIC50: 4,752
VAESBJ, soft_tissue
  pIC50: 4,707
